Assay results: patent EP1655298A1, “Novel polymorph forms of candesartan cilexetil” (priority 2004, dated 2006)
Like-named read-outs stand apart in the source and are kept apart here.

Key:
Format in all cases: physicochemical
Hygroscopicity by DVS = conditions: DVS - first cycle at 90 % humidity
Method: (§1) Physiologically relevant medium is a phosphate buffer at pH=6.76 + Sodiumtauroholat (2,5 mM) + Lecitin (0,5 mM). Surface area of Form 1 was 2.15 - 2,68 m^2/g whereas the surface area of Form 5 was 7,66 m^2/g (BET - isotherm), the hygroscopity as established by DVS - first cycle at 90 % humidity was 0,23% for Form I and 0,44% for Form 5.

[1] = Comparable solubility in phosphate buffer / physiologically relevant medium; conditions: for solubility at 0.5 h: read-out: C30 min; for solubility at 1 h: read-out: C60 min
Method: In order to prepare a pharmaceutical composition physical properties were measured.
as §1

[2] = Surface area (BET isotherm)
Method: as §1

Structure (SMILES): CCOc1nc2cccc(C(=O)OC(C)OC(=O)OC3CCCCC3)c2n1Cc1ccc(-c2ccccc2-c2nnn[nH]2)cc1 (stereo not drawn) [Form 1, candesartan cilexetil]
- hygroscopity (Hygroscopicity by DVS; listed as Form I): 0,23%
- solubility at 0.5 h ([1]; aqueous buffer, Phosphate buffer pH=6.76, 30 min): < 0.2 µg/mL
- solubility at 1 h ([1]; aqueous buffer, Phosphate buffer pH=6.76, 60 min): < 0.2 µg/mL

Structure (SMILES): CCOc1nc2cccc(C(=O)OC(C)OC(=O)OC3CCCCC3)c2n1Cc1ccc(-c2ccccc2-c2nnn[nH]2)cc1 (stereo not drawn) [Form 5, candesartan cilexetil]
- Surface area [2]: 7,66 m^2/g
- hygroscopity (Hygroscopicity by DVS): 0,44%
- C30 min ([1]; Phosphate buffer pH=6.76, 30 min): <0.2 µg/mL
- C60 min ([1]; Phosphate buffer pH=6.76, 60 min): <0.2 µg/mL
- solubility at 0.5 h ([1]; phosphate buffer + taurocholate + lecithin, Physiologically relevant medium: phosphate buffer pH=6.76 + Sodiumtauroholat (2,5 mM) + Lecitin (0,5 mM), 30 min): 37.1 µg/mL
- solubility at 1 h ([1]; phosphate buffer + taurocholate + lecithin, Physiologically relevant medium: phosphate buffer pH=6.76 + Sodiumtauroholat (2,5 mM) + Lecitin (0,5 mM), 60 min): 68.5 µg/mL
